Measured values published in patent US20240226079A1, “TOPICAL ANAESTHETIC COMPOSITION HAVING IMPROVED VASOCONSTRICTOR STABILITY” (Animal Ethics Pty Ltd, priority 2021, published 2024).
Read-outs that look alike come from different tables or passages of the source.

Experiment: Forced degradation studies of the drug substances
Description: Table 4 summarises information on the relative chemical stability of the drug substances, obtained in forced degradation studies.

Row | Compound | % Degradation | % Degradation (Acid, 8 Weeks) | % Degradation (Base, 8 Weeks) | % Degradation (Heat, 8 Weeks) | % Degradation (Light, 51 × 10^6 lux hrs) | % Degradation (Oxidation 1, 8 Weeks) | % Degradation (Oxidation 2, 8 Weeks) | % Degradation (Reduction, 8 Weeks)
1 | CNCC(O)c1ccc(O)c(O)c1 (stereo not shown) [Adrenaline] | 51.6% |  |  |  |  |  |  | 
2 | CCCCN1CCCCC1C(=O)Nc1c(C)cccc1C (stereo not shown) [Bupivacaine] | 11.2% |  |  |  |  |  |  | 
3 | CCN(CC)CC(=O)Nc1c(C)cccc1C [Lignocaine] |  | −0.3% | 1.1% | 1.1% | 9.9% | −0.2% | 3.3% | −0.3%
4 | Cetrimide |  | 0.4% | 0.9% | 0.5% | 8.9% | −0.2% | 1.0% | 8.4%
